Test results taken from patent publication US9487489B2, “Halogen-substituted pyrazole derivatives as pest-control agents” (BAYER CROPSCIENCE AKTIENGESELLSCHAFT, priority 2013, dated 2016).

Legend:
[1] = tested on: adult dog ticks (Rhipicephalus sanguineus); assay: Rhipicephalus sanguineus in vitro contact test with adult brown dog ticks (T2); settings: after 48 h
Description: T2. Rhipicephalus sanguineus-in vitro Contact Tests with Adult Brown Dog Ticks
(§1) For the coating of the test tubes, initially 9 mg of active compound are dissolved in 1 ml of acetone p.a. and then diluted with acetone p.a. to the desired concentration. By turning and rocking on an orbital shaker (2 h of rocking rotation at 30 rpm), 250 μl of the solution are distributed homogeneously on the internal walls and the floor of a 25 ml test tube. At 900 ppm active compound solution and 44.7 cm^2 internal surface, an area dose of 5 μg/cm^2 is achieved for homogeneous distribution.
After evaporation of the solvent, the tubes are populated with 5-10 adult dog ticks (Rhipicephalus sanguineus), sealed with a perforated plastic lid and incubated in a horizontal position in the dark at room temperature and ambient humidity. After 48 h, the efficacy is determined. To this end, the ticks are knocked to the floor of the tube and incubated on a hotplate at 45-50° C. for at most 5 min Ticks which remain motionless on the floor or move in an uncoordinated manner such that they are not able to deliberately avoid the heat by climbing upwards are considered to be dead or moribund.
An efficacy of 100% means that all ticks were dead or moribund. 0% efficacy means that none of the ticks had been damaged.

[2] = tested on: adult cat fleas (Ctenocephalides felis); assay: Ctenocephalides felis in vitro contact test with adult cat fleas (T1); settings: after 48 h
Description: T1. Ctenocephalides felis—in vitro Contact Tests with Adult Cat Fleas
as §1
After evaporation of the solvent, the tubes are populated with 5-10 adult cat fleas (Ctenocephalides felis), sealed with a perforated plastic lid and incubated in a horizontal position at room temperature and ambient humidity. After 48 h, the efficacy is determined. To this end, the test tubes are stood upright and the fleas are knocked to the floor of the tube. Fleas which remain motionless on the floor or move in an uncoordinated manner are considered to be dead or moribund.
An efficacy of 100% means that all fleas were dead or moribund. 0% efficacy means that none of the fleas had been damaged.

[3] = tested on: larvae of the mustard beetle (Phaedon cochleariae); assay: Phaedon cochleariae spray test (PHAECO); type: in vivo; settings: Chinese cabbage leaf discs, after 7 days
Description: H. Phaedon cochleariae-spray Test (PHAECO)
Solvents: 78.0 parts by weight of acetone
(§2) • 1.5 parts by weight of dimethylformamide Emulsifier: alkylaryl polyglycol ether
(§3) To produce a suitable preparation of active compound, 1 part by weight of active compound is dissolved using the stated parts by weight of solvent and made up with water comprising an emulsifier concentration of 1000 ppm until the desired concentration is reached. To produce further test concentrations, the preparation is diluted with emulsifier-containing water.
After 7 days, the efficacy in % is determined. 100% means that all of the beetle larvae have been killed; 0% means that none of the beetle larvae have been killed.

[4] = tested on: greenhouse red spider mite (Tetranychus urticae); assay: Tetranychus urticae spray test, OP-resistant (TETRUR); type: in vivo; settings: bean leaf discs, after 6 days
Description: J. Tetranychus urticae-spray Test, OP-Resistant (TETRUR)
(§4) Solvent: 78.0 parts by weight of acetone
as §2, §3
Discs of bean leaves (Phaseolus vulgaris) which are infested by all stages of the greenhouse red spider mite (Tetranychus urticae) are sprayed with an active compound preparation of the desired concentration.
After 6 days, the efficacy in % is determined. 100% means that all of the spider mites have been killed; 0% means that none of the spider mites have been killed.

[5] = tested on: caterpillars of the armyworm (Spodoptera frugiperda); assay: Spodoptera frugiperda spray test (SPODFR); type: in vivo; settings: maize leaf discs, after 7 days
Description: I. Spodoptera frugiperda-spray Test (SPODFR)
as §4, §2, §3
Leaf discs of maize (Zea mays) are sprayed with an active compound preparation of the desired concentration and, after drying, populated with caterpillars of the armyworm (Spodoptera frugiperda).
After 7 days, the efficacy in % is determined. 100% means that all of the caterpillars have been killed; 0% means that none of the caterpillars have been killed.

[6] = tested on: L1 larvae of the Australian sheep blowfly (Lucilia cuprina); assay: Lucilia cuprina test (LUCICU); type: in vivo; settings: application rate 100 ppm; after 2 days
Description: E. Lucilia cuprina Test (LUCICU)
(§5) Solvent: dimethyl sulphoxide
To produce a suitable preparation of active compound, 10 mg of active compound are mixed with 0.5 ml of dimethyl sulphoxide, and the concentrate is diluted with water to the desired concentration.
About 20 L1 larvae of the Australian sheep blowfly (Lucilia cuprina) are transferred into a test vessel containing minced horsemeat and the active compound preparation of the desired concentration.
After 2 days, the kill in % is determined 100% means that all of the larvae have been killed; 0% means that none of the larvae have been killed.

[7] = tested on: adult cat fleas (Ctenocephalides felis); assay: Ctenocephalides felis oral test (CTECFE); type: in vivo; settings: application rate 100 ppm in citrated cattle blood; after 2 days
Description: D. Ctenocephalides felis-oral Test (CTECFE)
as §5
To produce a suitable preparation of active compound, 10 mg of active compound are mixed with 0.5 ml of dimethyl sulphoxide. Dilution with citrated cattle blood gives the desired concentration.
About 20 unfed adult cat fleas (Ctenocephalides felis) are placed into a chamber which is closed at the top and bottom with gauze. A metal cylinder whose bottom end is closed with a parafilm is placed onto the chamber. The cylinder contains the blood/active ingredient preparation, which can be imbibed by the fleas through the parafilm membrane.
After 2 days, the kill in % is determined 100% means that all of the fleas have been killed; 0% means that none of the fleas have been killed.

[8] = tested on: engorged adult female cattle ticks (Boophilus microplus); assay: Boophilus microplus injection test (BOOPMI Inj); type: in vivo; settings: application rate 20 μg/animal; injection into abdomen; assessed after 7 days
Description: C. Boophilus microplus-injection Test (BOOPMI Inj)
as §5
To produce a suitable preparation of active compound, 10 mg of active compound are mixed with 0.5 ml of solvent, and the concentrate is diluted with solvent to the desired concentration.
1 μl of the active compound solution is injected into the abdomen of 5 engorged adult female cattle ticks (Boophilus microplus). The animals are transferred into dishes and kept in a climate-controlled room.
The activity is assessed after 7 days by laying of fertile eggs. Eggs whose fertility is not visible from the outside are stored in a climate-controlled cabinet until the larvae hatch after about 42 days. An efficacy of 100% means that none of the ticks has laid any fertile eggs; 0% means that all eggs are fertile.

[9] = logP determination by HPLC on a reversed-phase column (C18), EEC Directive 79/831 Annex V.A8; type: physicochemical
Description: (§6) ^a) Note regarding the determination of the logP values and mass detection: The determination of the given logP values was carried out in accordance with EEC Directive 79/831 Annex V.A8 by HPLC (High Performance Liquid Chromatography) on a reversed-phase column (C18). Agilent 1100 LC system; 50*4.6 Zorbax Eclipse Plus C18 1.8 micron; mobile phase A: acetonitrile (0.1% formic acid); mobile phase B: water (0.09% formic acid); linear gradient from 10% acetonitrile to 95% acetonitrile in 4.25 min, then 95% acetonitrile for a further 1.25 min; oven temperature 55° C.; flow rate: 2.0 ml/min. Mass detection is carried out via an Agilend MSD system.
as §6, with “^*)” for “^a)”

[10] = HPLC on reversed-phase column (C18), acetonitrile/water with formic acid, EEC Directive 79/831 Annex V.A8

Compound | efficacy (dead or moribund ticks) ([1]; application rate 1 μg/cm^2) | efficacy (dead or moribund fleas) ([2]; application rate 5 μg/cm^2) | efficacy in % ([3]; application rate 500 g/ha) | efficacy (kill in %) [6] | efficacy (kill in %) [7] | efficacy (laying of fertile eggs) [8] | efficacy in % ([3]; application rate 100 g/ha) | also measured
CC(C)CNC(=O)c1cc(-c2cnn(-c3c(C(F)(F)F)c(C(F)(F)C(F)(F)F)nn3C)c2)ccc1Cl [Ic-142] | 80% | 100% | 100% |  |  |  |  | efficacy (dead or moribund ticks) ([1]; application rate 5 μg/cm^2): 100%; efficacy (dead or moribund fleas) ([2]; application rate 1 μg/cm^2): 100%; efficacy in % ([4]; application rate 500 g/ha): 100%; efficacy in % ([5]; application rate 500 g/ha): 100%
Cn1nc(C(F)(F)C(F)(F)F)c(C(F)(F)F)c1-n1cc(-c2cc(Cl)nc(C(=O)NC3(C#N)CC3)c2)cn1 [Ic-89] |  |  | 100% | 100% | 90% | 100% |  | efficacy in % ([5]; application rate 500 g/ha): 83%
Cn1nc(C(F)(F)C(F)(F)F)c(C(F)(F)F)c1-n1cc(-c2cc(C(=O)NC3(C#N)CC3)ccc2F)cn1 [Ic-42] |  |  | 100% | 100% | 100% | 100% |  | efficacy in % ([5]; application rate 500 g/ha): 83%
CC(NC(=O)c1cc(-c2cnn(-c3c(C(F)(F)F)c(C(F)(F)C(F)(F)F)nn3C)c2)ccc1Cl)C(F)(F)F (stereo not drawn) [Ic-110] |  | 100% |  |  |  |  | 100% | logP [9, 10]: 4.23; efficacy in % ([4]; application rate 100 g/ha): 100%; efficacy in % ([5]; application rate 100 g/ha): 100%
CONC(=O)c1cc(-c2cnn(-c3c(C(F)(F)F)c(C(F)(F)C(F)(F)F)nn3C)c2)ccc1Cl [Ic-155] | 100% | 100% |  |  |  |  |  | efficacy (dead or moribund ticks) ([1]; application rate 5 μg/cm^2): 100%; efficacy (dead or moribund fleas) ([2]; application rate 1 μg/cm^2): 100%
Cn1nc(C(F)(F)C(F)(F)F)c(C(F)(F)F)c1-n1cc(-c2cc(C(=O)NC3CC3)c(F)c(F)c2F)cn1 [Ic-201] | 100% |  |  |  |  |  |  | efficacy (dead or moribund ticks) ([1]; application rate 5 μg/cm^2): 100%
N#CC1(NC(=O)c2cc(-c3cnn(-c4c(C(F)(F)F)c(C(F)(F)C(F)(F)F)nn4-c4ncccc4Cl)c3)ccc2Cl)CC1 [Ic-15] |  |  |  |  |  | 80% | 100% | logP [9, 10]: 4.15
Cn1nc(C(F)(F)C(F)(F)F)c(C(F)(F)F)c1-n1cc(-c2cc(Cl)nc(C(=O)NC3CC3)c2)cn1 [Ic-88] |  |  | 100% | 100% |  | 100% |  | 
Cn1nc(C(F)(F)C(F)(F)F)c(C(F)(F)F)c1-n1cnc(-c2ccc(Cl)c(C(=O)NC3(C#N)CC3)c2)n1 [Ie-1] |  |  |  |  | 100% | 100% | 100% | logP ([9]; HPLC, reversed-phase C18, acetonitrile (0.1% formic acid)/water (0.09% formic acid) gradient): 3.62
O=C(NC1CC1)c1cc(-c2cnn(-c3c(C(F)(F)F)c(C(F)(F)C(F)(F)F)nn3-c3ncccc3Cl)c2)ccc1Cl [Ic-14] |  |  |  | 100% |  | 100% | 100% | logP [9, 10]: 4.28; efficacy in % ([5]; application rate 100 g/ha): 100%
Cc1cc(NC(=O)c2cc(-c3cnn(-c4c(C(F)(F)F)c(C(F)(F)C(F)(F)F)nn4C)c3)ccc2Cl)no1 [Ic-148] | 80% | 100% |  |  |  |  |  | 
Cn1nc(C(F)(F)C(F)(F)F)c(C(F)(F)F)c1-n1cc(-c2ccc(Cl)c(C(=O)NCC(=O)NCC(F)(F)F)c2)cn1 [Ic-31] |  |  |  | 90% | 100% |  | 100% | logP [9, 10]: 3.65
Cn1nc(C(F)(F)C(F)(F)F)c(C(F)(F)F)c1-n1cc(-c2ccc(Cl)c(C(=O)NC3CCC3)c2)cn1 [Ic-143] | 100% | 100% |  |  |  |  |  | efficacy (dead or moribund ticks) ([1]; application rate 5 μg/cm^2): 100%; efficacy (dead or moribund fleas) ([2]; application rate 1 μg/cm^2): 100%
Cn1nc(C(F)(F)C(F)(F)F)c(C(F)(F)F)c1-n1cc(-c2cc(C(=O)NC3CC3)c(Cl)cc2F)cn1 [Ic-92] |  |  | 100% | 95% | 80% | 100% |  | 
Cn1nc(C(F)(F)C(F)(F)F)c(C(F)(F)F)c1-n1cc(-c2cc(C(=O)NC3CC3)ncc2F)cn1 [Ic-72] |  |  | 100% | 80% |  | 100% |  | 
